In PMC8125234, “Cardiolipin Stabilizes and Increases Catalytic Efficiency of Carnitine Palmitoyltransferase II and Its Variants S113L, P50H, and Y479F” (International Journal of Molecular Sciences, 2021):
Where a chain is given by its changes, count along the chain named.

What was measured:
CPT II variant P50H = molecular target: T1, CPT II variant P50H (Homo sapiens, UniProt P23786, P50H); assay: Influence of CL on the enzyme activity; type: biochemical; settings: for Maximal Enzymatic Activity: w/o CL = 100
T1 construct: made in house; host or cells: Escherichia coli BL21Gold DE
T1 sequence (P23786 26-658 P50H): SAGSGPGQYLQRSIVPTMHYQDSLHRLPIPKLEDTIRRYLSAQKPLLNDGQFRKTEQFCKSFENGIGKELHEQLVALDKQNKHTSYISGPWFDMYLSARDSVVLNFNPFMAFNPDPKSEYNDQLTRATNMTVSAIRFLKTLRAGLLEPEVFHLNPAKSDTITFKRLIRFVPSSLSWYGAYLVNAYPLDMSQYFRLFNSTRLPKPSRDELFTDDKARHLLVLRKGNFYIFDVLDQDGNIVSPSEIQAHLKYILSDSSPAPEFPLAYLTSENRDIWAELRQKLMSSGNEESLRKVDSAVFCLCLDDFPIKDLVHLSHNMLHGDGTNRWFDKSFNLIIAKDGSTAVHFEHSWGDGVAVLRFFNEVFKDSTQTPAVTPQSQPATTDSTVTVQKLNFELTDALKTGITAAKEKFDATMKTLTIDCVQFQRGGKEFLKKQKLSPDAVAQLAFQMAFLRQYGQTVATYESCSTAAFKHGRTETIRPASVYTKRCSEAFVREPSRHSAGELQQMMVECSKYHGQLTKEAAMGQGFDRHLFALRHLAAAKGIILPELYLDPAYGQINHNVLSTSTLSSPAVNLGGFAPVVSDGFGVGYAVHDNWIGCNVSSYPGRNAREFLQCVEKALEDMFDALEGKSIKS
Method: (§1) Then, the effect of CL, as a potential stabilizing agent, was investigated in the activity assay. Therefore, 0.1 mg/mL recombinant enzyme was incubated with various concentrations of CL (0.125, 0.25 or 0.5 mM) or buffer at 30 and 42 °C, respectively.
(§2) Before activity measurements, the storage buffer of the enzymes was replaced with assay buffer (50 mM KH2PO4, 120 mM KCl, 1 mM EDTA-Na4) using vivaspin turbo 4 tubes (Satorius Stedim biotech GmbH, Göttingen, Germany) at 4 °C. The pH of assay buffer was adjusted with KOH to 7.4. The storage buffer was diluted at least 1:500 in assay buffer. In addition, before each experimental set up, the protein samples were centrifuged at 16,000× g for 5 min at 4 °C to remove any micro-aggregates. After that, the protein concentration was determined using bicinchoninic acid (BCA) protein assay kit (Thermo Fisher Scientific GmbH, Berlin, Germany). The enzyme activity of recombinant CPT II was performed following Rufer et al. with modifications described elsewhere. […] After pre-conditioning the mixture to 25 °C for 2 min, the reaction was started by adding 15 nM of recombinant enzyme. The reverse reaction of CPT II was detected with the enzyme activity assay. CPT II catalyzed the transfer of fatty acid residue from Pal-CoA to L-carnitine with release of CoA and Pal-carnitine. The released CoA was then detected by the reaction of the free thiol group with DTNB, forming 5-mercapto-(2-nitrobenzoic acid). This compound has a molar extinction coefficient of 13,600 M^−1 cm^−1 at a wavelength of 410 nm, and its formation was followed spectroscopically. […] The slope of the progress curve was used to determine the reaction velocity.
(§3) The purified enzymes were incubated at different temperatures (30, 37, 40 and 42 °C) using a protein concentration of 1 mg/mL during the incubation periods to investigated the half-lives of WT and variants. 0.1 mg/mL enzyme was incubated with or without CL (0.125, 0.25 and 0.5 mM) in the assay buffer. The enzyme activities were determined by adding 15 nM of pre-incubated enzyme according to Section 4.3 after various incubation times up to 60 min at an assay temperature of 25 °C. Experiments were done at least three times independently as double determination.

CPT II variant S113L = molecular target: T2, CPT II variant S113L (Homo sapiens, UniProt P23786, S113L); assay: Influence of CL on the enzyme activity; type: biochemical; settings: for Maximal Enzymatic Activity: w/o CL = 100
T2 construct: made in house; host or cells: Escherichia coli BL21Gold DE
T2 sequence (P23786 26-658 S113L): T1 sequence (P23786 26-658 P50H) with H25P, S88L
Method: as §1, §2, §3

Cardiolipin [CL]
Increase of the enzymatic activity by CL (CPT II variant P50H): marginal effect
Maximal Enzymatic Activity (CPT II variant P50H; 0.25 mM CL): 113.0 ± 7.6%
Maximal Enzymatic Activity (CPT II variant P50H; 0.5 mM CL): 94.5 ± 6.4%
Enzymatic activity in the presence of CL (CPT II variant P50H; before incubation periods): 113%
Effect of CL on maintenance of enzyme activity (CPT II variant P50H; incubation at 42 °C): almost no effect
Increase of the enzymatic activity by CL (CPT II variant S113L): marginal effect
Maximal Enzymatic Activity (CPT II variant S113L; 0.25 mM CL): 114.5 ± 8.3%
Maximal Enzymatic Activity (CPT II variant S113L; 0.5 mM CL): 98.7 ± 5.1%
Enzymatic activity in the presence of CL (CPT II variant S113L; before incubation periods): 115%
